Measured values taken from patent US9637462B2, “Process for the preparation of N-iodoamides” (TECHNION RESEARCH & DEVELOPMENT FOUNDATION LIMITED, priority 2013, dated 2017).

Columns and labels:
[1] = shake-flask, equal volumes, gravimetric recovery from organic layer; details: 25 °C
[2] = Distribution coefficient (K) of amides between water-immiscible organic solvent and water (recovery of amides from aqueous solution); assay type: physicochemical; details: 25° C., stirred 0.5 h
Description: A mixture of amide (weight of amide (W): 0.2-0.5 g), water (20-100 mL) and water immiscible organic solvent (the same volume as water) was stirred at 25° C. for 0.5 h. The organic layer was thoroughly separated, dried over Na2SO4, filtered and concentrated in vacuo to recover the amide. Distribution coefficient K was calculated according to the formula K=Wo/W−Wo, where Wo is weight of the recovered amide in g. Distribution coefficients of 3,5,5-trimethylhydantoin (3,5,5-TMH), 4,4-dimethyloxazolidin-2-one (DMO), 5,5-dimethylhydantoin (DMH) and succinimide in hexane, benzene, CCl4 and DCM are shown in Table 3.1.

[3] = PhH (benzene) / water (equal volumes)

Row | SMILES | melting point | partition coefficient dichloromethane / water [1] | Distribution coefficient (K) ([2]; CCl4 / water (equal volumes)) | Distribution coefficient (K) ([2]; DCM / water (equal volumes)) | Distribution coefficient (K) [2, 3] | Distribution coefficient (K) ([2]; hexane / water (equal volumes))
1 | CC1(C)COC(=O)N1I | 148 to 149 °C (dec.) |  |  |  |  | 
2 | CN1C(=O)N(I)C(C)(C)C1=O [1-ITMH, 1-iodo-3,5,5-trimethylhydantoin] | 198 to 199 °C (dec.) |  |  |  |  | 
3 | CN1C(=O)NC(C)(C)C1=O [3,5,5-TMH, 3,5,5-trimethylhydantoin] |  | 1.6 mass ratio (equal phase volumes) | 0.1≦ | 1.6 | 0.1≦ | 0.1≦
4 | CN1C(=O)N(I)C(=O)C1(C)C [3-ITMH, 3-iodo-1,5,5-trimethylhydantoin] | 213 to 214 °C (dec.) |  |  |  |  | 
5 | CC1(C)NC(=O)NC1=O [DMH, 5,5-dimethylhydantoin, reference compound] |  |  | 0.1≦ | 0.1≦ | 0.1≦ | 0.1≦
6 | CC1(C)COC(=O)N1 [DMO, 4,4-dimethyloxazolidin-2-one] |  | 0.5 mass ratio (equal phase volumes) | 0.1≦ | 0.5 | 0.1≦ | 0.1≦
7 | O=C1CCC(=O)N1 [succinimide, reference compound] |  |  | 0.1≦ | 0.1≦ | 0.1≦ | 0.1≦
